Where two headings read alike, the source gives them in different places.
Legend:
Format in all cases: in vitro ADME
[1] = Rat liver microsomal metabolic stability; settings: rat liver microsomes
Outline: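 Rat liver microsomes (1 mg/mL working solution) with test compound (working solution 100 µM) were pre-incubated 5 min at 37 °C, then started with NADPH (4.0 mM working solution). Residual compound measured by LC-MS/MS over time. T1/2 taken from first-order decay, scaled to CLint and hepatic CL with fu = 1.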

[2] = biological target: T1, CYP2C9 (Homo sapiens, UniProt P11712); experiment: Inhibition of hepatic drug-metabolizing enzymes in human liver microsomes
T1 construct: human liver microsomes were used as the CYP450 enzyme source; from tissue; host or cells: human liver microsomes
T1 sequence (P11712 whole entry): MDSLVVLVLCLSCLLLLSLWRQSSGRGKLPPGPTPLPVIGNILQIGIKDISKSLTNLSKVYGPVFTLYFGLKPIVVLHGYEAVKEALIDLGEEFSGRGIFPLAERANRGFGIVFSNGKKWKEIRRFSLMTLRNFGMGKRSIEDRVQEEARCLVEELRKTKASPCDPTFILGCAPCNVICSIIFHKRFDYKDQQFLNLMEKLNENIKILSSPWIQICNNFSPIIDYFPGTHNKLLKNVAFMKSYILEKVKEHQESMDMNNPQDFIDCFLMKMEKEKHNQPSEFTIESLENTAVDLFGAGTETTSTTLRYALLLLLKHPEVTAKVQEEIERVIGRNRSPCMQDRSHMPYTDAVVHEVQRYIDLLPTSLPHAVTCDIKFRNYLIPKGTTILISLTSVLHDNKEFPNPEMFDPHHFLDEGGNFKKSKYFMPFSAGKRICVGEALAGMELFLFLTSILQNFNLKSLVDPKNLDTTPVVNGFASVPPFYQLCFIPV
Text: (§1) The main site of drug metabolism is the liver, and the main component of the mixed-function oxidase system present in the liver is the CYP450 enzyme. This enzyme system causes most clinically observed drug-drug interactions, which in turn leads to an increased incidence of adverse drug reactions. CYP450 is a group of supergene family composed of many isozymes, wherein CYP3A4 acts as a major metabolizing enzyme and is involved in the metabolism of nearly half of clinically used drugs. Similarly, CYP2C9 and CYP2C19 also act as important metabolizing enzymes and are involved in the metabolism of various drugs clinically. Therefore, evaluating the risk of drug-drug interactions by testing the inhibitory activity of compounds on CYP450 enzymes at an early stage can improve the safety of medication use.
(§2) In the present disclosure, human liver microsomes were used as the CYP450 enzyme source. The specific probe substrates for each CYP isoenzyme (wherein CYP3A4 used two substrates, midazolam and testosterone, denoted as CYP3A4-M and CYP3A4-T respectively) were incubated with a series of concentrations of the test compound in the presence of the cofactor NADPH. The production amount of metabolites of probe substrates in the incubation system was determined by LC-MS/MS, and the IC50 values of the test compound against each CYP450 enzyme subtype were calculated to evaluate its inhibitory effect on each CYP450 enzyme subtype. During the experiment, 49 µL of PBS, 50 µL of probe substrate, and 50 µL of human liver microsome working solution were sequentially added to the incubation system, followed by the addition of 1 µL of the test compound working solution at each concentration, and the mixture was mixed well. After pre-incubation at 37°C for 5 min, 50 µL of NADPH was added to initiate the reaction. After incubation for the corresponding time, an appropriate amount of ice-cold acetonitrile containing an internal standard was added to terminate the reaction. The mixture was vortexed to mix well, centrifuged, and the supernatant was taken. The supernatant was injected into LC-MS/MS to determine the production amount of metabolites of the probe substrate. Taking the enzyme activity at the 0-concentration point (characterized by the production amount of metabolites) as 100%, the percentage of residual enzyme activity of metabolites at different concentrations of the test compound was calculated. IC50 was calculated by the residual enzyme activity using Graphpad Prism software.

[3] = biological target: T2, CYP2C19 (Homo sapiens, UniProt P33261); experiment: as above
T2 construct: human liver microsomes were used as the CYP450 enzyme source; from tissue; host or cells: human liver microsomes
T2 sequence (P33261 whole entry): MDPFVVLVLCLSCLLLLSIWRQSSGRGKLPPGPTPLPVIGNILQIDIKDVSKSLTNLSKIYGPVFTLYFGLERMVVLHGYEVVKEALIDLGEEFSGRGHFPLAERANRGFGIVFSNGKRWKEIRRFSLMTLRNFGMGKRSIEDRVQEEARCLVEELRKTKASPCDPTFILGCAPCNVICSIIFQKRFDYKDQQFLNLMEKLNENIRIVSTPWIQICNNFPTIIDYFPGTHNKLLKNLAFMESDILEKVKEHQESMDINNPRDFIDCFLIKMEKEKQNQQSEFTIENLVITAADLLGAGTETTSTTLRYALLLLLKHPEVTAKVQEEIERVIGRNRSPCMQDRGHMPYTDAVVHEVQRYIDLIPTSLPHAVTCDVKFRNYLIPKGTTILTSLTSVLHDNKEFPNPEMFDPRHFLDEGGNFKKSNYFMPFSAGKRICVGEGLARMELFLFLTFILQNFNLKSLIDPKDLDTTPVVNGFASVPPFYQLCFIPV
Text: as §1, §2

[4] = calculated from T1/2, fu defaulted to 1, read-out: CL(liver)
[5] = human liver microsomes, read-out: Inhibitory activity on drug-metabolizing enzymes (IC50, µM) CYP2C9
[6] = human liver microsomes, read-out: Inhibitory activity on drug-metabolizing enzymes (IC50, µM) CYP2C19

| SMILES | half-life at 1 µM ([1]; NADPH, 37°C) [h] | CLint scaled at 1 µM [1, 4] [mL/min/kg] | IC50 [2, 5] [µM] | IC50 [3, 6] [µM] | half-life ([1]; NADPH, 37°C) [h] | CLint scaled [1, 4] [mL/min/kg] | IC50 [2] [µM] | IC50 [3] [µM] |
| --- | --- | --- | --- | --- | --- | --- | --- | --- |
| CCN1CCN(c2nnc(N[C@H](C)c3cccc(C(F)F)c3F)c3cn(N4CCOCC4)c(=O)cc23)CC1 [Example 109, (R)-4-((1-(3-(difluoromethyl)-2-fluorophenyl)ethyl)amino)-1-(4-ethylpiperazin-1-yl)-6-morpholinopyrido[3 ,4-d]pyridazin-7(6H)-one] | > 5 | < 7.23 | > 10 | > 10 | – | – | – | – |
| CC(C)N1CCN(c2nnc(N[C@H](C)c3cccc(C(F)F)c3F)c3cn(N4CCOCC4)c(=O)cc23)CC1 [Example 111, (R)-4-((1-(3-(difluoromethyl)-2-fluorophenyl)ethyl)amino)-1-(4-isopropylpiperazin-1-yl)-6-morpholinopyrido[3 ,4-d]pyridazin-7(6H)-one] | > 5 | < 7.23 | > 10 | > 10 | – | – | – | – |
| CCN1CCN(c2nnc(N[C@H](C)c3cccc(C(F)F)c3F)c3cn(C4CC(F)(F)C4)c(=O)cc23)CC1 [Example 98, (R)-6-(3,3-difluorocyclobutyl)-4-((1-(3-(difluoromethyl)-2-fluorophenyl)ethyl)amino)-1-(4-ethylpiperazin-1-yl)pyrido[3,4-d]pyridazin-7(6H)-one] | 3.12 | 10.8 | > 10 | > 10 | – | – | – | – |
| C[C@@H](Nc1nnc(N2CCN(C3CCCC3)CC2)c2cc(=O)n(N3CCOCC3)cc12)c1cccc(C(F)F)c1F [Example 120, (R)-4-((1-(3-(difluoromethyl)-2-fluorophenyl)ethyl)amino)-1-(4-cyclopentylpiperazin-1-yl)-6-morpholinopyrido[3 ,4-d]pyridazin-7(6H)-one] | > 5 | < 7.23 | > 10 | > 10 | – | – | – | – |
| C[C@@H](Nc1nnc(N2CCN(C)CC2)c2cc(=O)n(C3CC3)cc12)c1cccc(C(F)F)c1F [Example 77] | – | – | – | – | > 5 | < 7.23 | > 10 | > 10 |
| CC(C)Nc1nnc(N[C@H](C)c2cccc(C(F)F)c2F)c2cn(C3(C)CC3)c(=O)cc12.O=CO [Example 12, (R)-4-((1-(3-(difluoromethyl)-2-fluorophenyl)ethyl)amino)-1-(isopropylamino)-6-(1-methylcyclopropyl) pyrido[3,4-d]pyridazin-7(6H)-one formate] | 2.5 | 12.8 | > 10 | > 10 | – | – | – | – |
| CNc1nnc(N[C@H](C)c2cccc(C(F)F)c2F)c2cn(C3(C)CC3)c(=O)cc12.O=CO [Example 9, (R)-4-((1-(3-(difluoromethyl)-2-fluorophenyl)ethyl)amino)-1-(methylamino)-6-(1-methylcyclopropyl) pyrido[3,4-d]pyridazin-7(6H)-one formate] | 4.33 | 8.2 | > 10 | > 10 | – | – | – | – |
| C[C@@H](Nc1nnc(N2CCN(C)CC2)c2cc(=O)n(C3CCC3)cc12)c1cccc(C(F)F)c1F [Example 88, (R)-6-cyclobutyl-4-((1-(3-(difluoromethyl)-2-fluorophenyl)ethyl)amino)-1-(4-methylpiperazin-1-yl)pyrido[3,4-d]pyridazin-7(6H)-one] | 2.13 | 14.4 | > 10 | > 10 | – | – | – | – |
| CC(C)N1CCN(c2nnc(N[C@H](C)c3cccc(C(F)F)c3F)c3cn(C4(C)CC4)c(=O)cc23)CC1 [Example 217, (R)-4-((1-(3-(difluoromethyl)-2-fluorophenyl)ethyl)amino)-1-(4-isopropylpiperazin-1-yl)-6-(1-methylcyclopropyl) pyrido[3,4-d]pyridazin-7(6H)-one] | 4.33 | 8.18 | > 10 | > 10 | – | – | – | – |
| CNc1nnc(N[C@H](C)c2cccc(C(F)(F)F)c2C)c2cn(C3CC3)c(=O)cc12 [Example 52, (R)-6-cyclopropyl-4-((1-(2-methyl-3-(trifluoromethyl)phenyl)ethyl)amino)-1-(methylamino)pyrid o[3,4-d]pyridazin-7(6H)-one] | 1.41 | 19.2 | > 10 | > 10 | – | – | – | – |
| C[C@@H](Nc1nnc(N2CCN(C(C)(C)C)CC2)c2cc(=O)n(C3(C)CC3)cc12)c1cccc(C(F)F)c1F.O=CO [Example 222, (R)-1-(4-(tert-butyl)piperazin-1-yl)-4-((1-(3-(difluoromethyl)-2-fluorophenyl)ethyl)amino)-6-(1-methylcyclopropyl) pyrido[3,4-d]pyridazin-7(6H)-one formate] | 3.63 | 9.47 | > 10 | > 10 | – | – | – | – |
| CCN1CCN(c2nnc(N[C@H](C)c3cccc(C(F)F)c3F)c3cn(C4(C)CC4)c(=O)cc23)CC1 [Example 216, (R)-4-((1-(3-(difluoromethyl)-2-fluorophenyl)ethyl)amino)-1-(4-ethylpiperazin-1-yl)-6-(1-methylcyclopropyl) pyrido[3,4-d]pyridazin-7(6H)-one] | 4.85 | 7.43 | > 10 | > 10 | – | – | – | – |
| C[C@@H](Nc1nnc(N2CCN(C)CC2)c2cc(=O)n(N3CCOCC3)cc12)c1cccc(C(F)F)c1F [Example 110, (R)-4-((1-(3-(difluoromethyl)-2-fluorophenyl)ethyl)amino)-1-(4-methylpiperazin-1-yl)-6-morpholinopyrido[3 ,4-d]pyridazin-7(6H)-one] | > 5 | < 7.23 | > 10 | > 10 | – | – | – | – |
| CNc1nnc(N[C@H](C)c2cccc(C(F)(F)F)c2C)c2cn(C3(C)CC3)c(=O)cc12 [Example 73, (R)-4-((1-(2-methyl-3-(trifluoromethyl)phenyl)ethyl)amino)-1-(methylamino)-6-(1-methylcyclopropyl) pyrido[3,4-d]pyridazin-7(6H)-one] | 1.59 | 17.7 | > 10 | > 10 | – | – | – | – |
| C[C@@H](Nc1nnc(N2CCN(C)CC2)c2cc(=O)n(C3(C)CC3)cc12)c1cccc(C(F)F)c1F.O=CO [Example 80, (R)-4-((1-(3-(difluoromethyl)-2-fluorophenyl)ethyl)amino)-6-(1-methylcyclopropyl)-1-(4-methylpiperazin-1-yl)pyrido[3,4-d]pyridazin-7(6H)-one formate] | 2.68 | 12.1 | > 10 | > 10 | – | – | – | – |
| CCN1CCN(c2nnc(N[C@H](C)c3cccc(C(F)F)c3F)c3cn(C4CCC4)c(=O)cc23)CC1 [Example 112, (R)-6-cyclobutyl-4-((1-(3-(difluoromethyl)-2-fluorophenyl)ethyl)amino)-1-(4-ethylpiperazin-1-yl)pyrido[3,4-d]pyridazin-7(6H)-one] | 3.32 | 10.2 | > 10 | > 10 | – | – | – | – |

Reference: patent EP4722213A1, “NITROGEN-CONTAINING FUNCTIONAL GROUP-SUBSTITUTED PYRIDAZINOPYRIDONE DERIVATIVE AND USE THEREOF” (Sichuan Huiyu Pharmaceutical Co., Ltd., priority 2023, dated 2024)
